According to BindingDB's records for doi:10.3109/14756366.2012.670807 (Atatürk University, 2013):

Legend:
Carbonic anhydrase 2 = Carbonic anhydrase 2 (Homo sapiens, UniProt P00918); test: Esterase Assay; details: pH 7.4
Experimental: (§1) CA activity was assayed by following the change in absorbance at 348 nm of 4-nitrophenylacetate (NPA) to 4-nitrophenylate ion over a period of 3 min at 25°Cusing a spectrophotometer (CHEBIOS UV-VIS) according to the method described by Verpoorte et al. [Verpoorte et al., J. Biol. Chem., 242:4221-4229] The enzymatic reaction contained 1.4 mL 0.05 M Tris-SO4 buffer (pH 7.4), 1 mL 3 mM 4-NPA, 0.5 mL H2O and 0.1 mL enzyme solution (total volume, 3.0 mL). A reference measurement was obtained by preparing the mixture without the enzyme solution. All measurements were made in triplicate. The Ki values were determined from a series of experiments using three different bromophenols concentrations and 4-NPA as the substrate at five different concentrations to construct Lineweaver-Burk curves [Lineweaver et al., J. Am. Chem. Soc., 57:685-693].

Carbonic anhydrase 1 = Carbonic anhydrase 1 (Homo sapiens, UniProt P00915); test: Esterase Assay; details: pH 7.4
Experimental: as §1

Carbonic anhydrase 1, sequence (P00915 whole entry): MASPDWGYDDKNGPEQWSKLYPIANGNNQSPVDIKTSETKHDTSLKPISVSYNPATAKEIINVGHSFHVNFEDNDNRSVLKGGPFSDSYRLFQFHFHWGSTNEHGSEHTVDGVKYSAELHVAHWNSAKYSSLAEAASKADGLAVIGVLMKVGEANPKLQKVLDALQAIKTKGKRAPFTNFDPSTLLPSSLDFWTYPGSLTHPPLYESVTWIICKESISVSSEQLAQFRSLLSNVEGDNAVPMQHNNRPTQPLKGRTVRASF

Row | SMILES | IC50 (Carbonic anhydrase 2) [µM] | Ki (Carbonic anhydrase 2) [µM] | IC50 (Carbonic anhydrase 1) [µM] | Ki (Carbonic anhydrase 1) [µM]
1 | O=C(c1ccc(O)c(O)c1)c1ccc(O)c(O)c1O [Carbonic anhydrase isoenzymes inhibitor, 5] | 142 | 23 | 27.8 | 32.5
2 | Oc1ccc(Cc2ccc(O)c(O)c2O)cc1O [Carbonic anhydrase isoenzymes inhibitor, 15] | 79.4 | 42.5 | 54.3 | 8.36

Stronger by IC50 (Carbonic anhydrase 2), values ahead:

Row | IC50 (Carbonic anhydrase 2) [µM] | Ki (Carbonic anhydrase 2) [µM] | IC50 (Carbonic anhydrase 1) [µM] | Ki (Carbonic anhydrase 1) [µM] | SMILES
3 | 18.5 | 3.25 | 6.92 | 6.77 | O=C(c1ccc(O)c(O)c1)c1cc(Br)c(O)c(O)c1O [Carbonic anhydrase isoenzymes inhibitor, 13]
4 | 24.5 | 28.6 | 3.22 | 1.19 | O=C(c1cc(O)c(O)cc1Br)c1cc(Br)c(O)c(O)c1O [Carbonic anhydrase isoenzymes inhibitor, 14]
5 | 63.6 | – | 4.28 | 2.59 | Oc1cc(Br)c(Cc2cc(Br)c(O)c(O)c2O)cc1O [Carbonic anhydrase isoenzymes inhibitor, 16]
